The record followed here is patent US20100196321A1, “COMPOUNDS” (GLAXOSMITHKLINE LLC, priority 2009, published 2010).

In assay [1] the test system is sub-genomic HCV NS3-NS5B replicon of genotype 1a in Huh-7 cells. Nature of the assay: Replicon Luciferase Cell Based Assay, genotype 1a. Set-up: species or system HCV genotype 1a. The note with it: Hepatitis C virus, Huh-7, 48 hours. The protocol: (§1) A 10 mM stock solution in DMSO of each test compound was further diluted in DMSO in the first row of a 384-well, V-bottom microplate, to give 100 times the top concentration of the required dilution series. Dilutions of compound were prepared in 1:3 serial dilutions from the first row onwards robotically. A robot was also used to transfer 0.5 μL volumes from each dilution well into wells of white 384-well assay plates (Nunc #164610). Control wells received 0.5 μL of DMSO alone. Plates were made in duplicate for measuring HCV replication and cytotoxicity in the replicon cell lines.
(§2) Suspensions were prepared from cultures of Huh-7 cells stably transfected with sub-genomic HCV NS3—NS5B replicons of either genotype 1b (the ET subline described by Pietschmann, T., Lohmann, V., Kaul, A., Krieger, N., Rinck, G., Rutter, G., Strand, D. & Bartenschlager, R., Journal of Virology, 2002, 76, 4008-4021) or genotype 1a linked to a firefly luciferase reporter gene. Monolayers nearing confluency were stripped from growth flasks with versene-trypsin solution and the cells re-suspended in assay medium comprising DMEM (Invitrogen #11965-092) supplemented with 5% v/v foetal calf serum, 1% v/v non-essential amino acids solution, 100 units/ml penicillin, 100 μg/ml streptomycin and 2 mM GlutaMAX-1. 50 μL of suspension containing 5,000 cells of either genotype 1b or genotype 1a luciferase replicon were added to all wells, except medium controls, of the assay plate with a Multidrop Combi (Thermo Scientific Corporation) and the plate incubated for 48 hours at 37° C. in a 5% CO2 atmosphere. A solution of Steady-Glo cytolytic buffer/luciferase substrate (Promega #E2550) was prepared according to the manufacturer's instructions, and 20 μL were added to each well with a Multidrop Combi. To measure cytotoxicity, a solution of CellTiter-Glo Luminescent Cell Viability Assay reagent (Promega #G7573) was prepared according to the manufacturer's instructions, and 20 ul were added to each well with a Multidrop Combi. The plates were then read for luminescence on an Envision Multilabel Reader (Perkin Elmer)
(§3) Potency: The luminescence values from all compound-free wells containing cells were averaged to obtain a positive control value. The mean luminescence value from the compound-free wells that had received no cells was used to provide the negative (background) control value. After the subtraction of the mean background from all values, the readings from wells at each compound concentration were expressed as a percentage of the positive control signal. The quantifiable and specific reduction of luciferase signal in the presence of a drug is a direct measure of replicon inhibition. The BioAssay application and XC50 module were used to plot the curve of percentage inhibition against compound concentration and derive the 50% inhibitory concentration (IC50) for the compound.
A general note: Replicon systems follow genome replication, usually without infectious particles.

Assay [2] deals with sub-genomic HCV NS3-NS5B replicon of genotype 1b (ET subline) in Huh-7 cells. Put plainly: Replicon Luciferase Cell Based Assay, genotype 1b. On the set-up: species or system HCV genotype 1b. The conditions noted are these: Hepatitis C virus, Huh-7, 48 h, read-out: Genotype 1b (IC50 μM). How it is done: as §1, §2, §3

As a reminder, the IC50 is the concentration that inhibits the measured activity by half. Take `COc1ccc2c(O[C@@H]3C[C@H]4C(=O)N[C@]5(C(=O)NS(=O)(=O)C6CC6)C[C@H]5/C=C\CCCCC[C@H](NC(=O)N5C[C@@H](C)O[C@@H](C)C5)C(=O)N4C3)cc(-c3nc(C(C)C)cs3)nc2c1C` [Example 11, (2R,6S,13aS,14aR,16aS)-N-(cyclopropylsulfonyl)-6-({[(2R,6S)-2,6-dimethyl-4-morpholinyl]carbonyl}amino)-2-{[8-methyl-2-[4-(1-methylethyl)-1,3-thiazol-2-yl]-7-(methyloxy)-4-quinolinyl]oxy}-5,16-dioxo-1,2,3,6,7,8,9,10,11,13a,14,15,16,16a-tetradecahydrocyclopropa[e]pyrrolo[1,2-a][1,4]diazacyclopentadecine-14a(5H)-carboxamide]: the IC50 in assay [1] and in assay [2] was less than 0.01 µM in each case.

As to `COc1ccc2c(O[C@@H]3C[C@H]4C(=O)N[C@]5(C(=O)NS(=O)(=O)C6CC6)C[C@H]5/C=C\CCCCC[C@H](NC(=O)N5CCC5)C(=O)N4C3)cc(-c3nc(C4CC4)cs3)nc2c1C` [Example 32, (2R,65,13aS,14aR,16aS,Z)-6-(azetidine-1-carboxamido)-N-(cyclopropylsulfonyl)-2-(2-(4-cyclopropylthiazol-2-yl)-7-methoxy-8-methylquinolin-4-yloxy)-5,16-dioxo-1,2,3,5,6,7,8,9,10,11,13a,14,14a,15,16,16a-hexadecahydrocyclopropa[e]pyrrolo[1,2-a][1,4]diazacyclopentadecine-14a-carboxamide], the IC50 in assay [1] and in assay [2] was less than 0.01 µM each time.

With `COc1ccc2c(O[C@@H]3C[C@H]4C(=O)N[C@]5(C(=O)NS(=O)(=O)C6CC6)C[C@H]5/C=C\CCCCC[C@H](NC(=O)N(C)C(C)C)C(=O)N4C3)cc(-c3nc(C4CC4)cs3)nc2c1C` [Example 7, (2R,6S,13aS,14aR,16aS)-N-(cyclopropylsulfonyl)-2-{[2-(4-cyclopropyl-1,3-thiazol-2-yl)-8-methyl-7-(methyloxy)-4-quinolinyl]oxy}-6-({[methyl(1-methylethyl)amino]carbonyl}amino)-5,16-dioxo-1,2,3,6,7,8,9,10,11,13a,14,15,16,16a-tetradecahydrocyclopropa[e]pyrrolo[1,2-a][1,4]diazacyclopentadecine-14a(5H)-carboxamide], the IC50 in assay [1] and in assay [2] was less than 0.01 µM each time.

Regarding `COc1ccc2c(O[C@@H]3C[C@H]4C(=O)N[C@]5(C(=O)NS(=O)(=O)C6CC6)C[C@H]5/C=C\CCCCC[C@H](NC(N)=O)C(=O)N4C3)cc(-c3nc(C(C)C)cs3)nc2c1C` [Example 3, (2R,6S,13aS,14aR,16aS)-6-[(aminocarbonyl)amino]-N-(cyclopropylsulfonyl)-2-{[8-methyl-2-[4-(1-methylethyl)-1,3-thiazol-2-yl]-7-(methyloxy)-4-quinolinyl]oxy}-5,16-dioxo-1,2,3,6,7,8,9,10,11,13a,14,15,16,16a-tetradecahydrocyclopropa[e]pyrrolo[1,2-a][1,4]diazacyclopentadecine-14a(5H)-carboxamide], the IC50 in assay [1] and in assay [2] was less than 0.01 µM each time.

As to `COc1ccc2c(O[C@@H]3C[C@H]4C(=O)N[C@]5(C(=O)NS(=O)(=O)C6CC6)C[C@H]5/C=C\CCCCC[C@H](NC(=O)N5CCCC5)C(=O)N4C3)cc(-c3nc(C4CC4)cs3)nc2c1C` [Example 30, (2R,6S,13a-5,1-aR,16aS,Z)-N-(cyclopropylsulfonyl)-2-(2-(4-cyclopropylthiazol-2-yl)-7-methoxy-8-methylquinolin-4-yloxy)-5,16-dioxo-6-(pyrrolidine-1-carboxamido)-1,2,3,5,6,7,8,9,10,11,13a,14,14a,15,16,16a-hexadecahydrocyclopropa[e]pyrrolo[1,2-a][1,4]diazacyclopentadecine-14a-carboxamide], the IC50 in assay [1] and in assay [2] was less than 0.01 µM each time.

As to `COc1ccc2c(O[C@@H]3C[C@H]4C(=O)N[C@]5(C(=O)NS(=O)(=O)C6CC6)C[C@H]5/C=C\CCCCC[C@H](NC(=O)N5CC6CCCC6C5)C(=O)N4C3)cc(-c3nc(C(C)C)cs3)nc2c1C` (stereo partly drawn) [Example 24, (2R,6S,13aS,14aR,16aS)-N-(cyclopropylsulfonyl)-6-[(hexahydrocyclopenta[c]pyrrol-2(1H)-ylcarbonyl)amino]-2-{[8-methyl-2-[4-(1-methylethyl)-1,3-thiazol-2-yl]-7-(methyloxy)-4-quinolinyl]oxy}-5,16-dioxo-1,2,3,6,7,8,9,10,11,13a,14,15,16,16a-tetradecahydrocyclopropa[e]pyrrolo[1,2-a][1,4]diazacyclopentadecine-14a(5H)-carboxamide], the IC50 in assay [1] and in assay [2] was less than 0.01 µM each time.

`CCN(C(=O)N[C@H]1CCCCC/C=C\[C@@H]2C[C@@]2(C(=O)NS(=O)(=O)C2CC2)NC(=O)[C@@H]2C[C@@H](Oc3cc(-c4nc(C5CC5)cs4)nc4c(C)c(OC)ccc34)CN2C1=O)C(C)C` [Example 5, (2R,6S,13aS,14aR,16aS)-N-(cyclopropylsulfonyl)-2-{[2-(4-cyclopropyl-1,3-thiazol-2-yl)-8-methyl-7-(methyloxy)-4-quinolinyl]oxy}-6-({[ethyl(1-methylethyl)amino]carbonyl}amino)-5,16-dioxo-1,2,3,6,7,8,9,10,11,13a,14,15,16,16a-tetradecahydrocyclopropa[e]pyrrolo[1,2-a][1,4]diazacyclopentadecine-14a(5H)-carboxamide]: the IC50 in assay [1] and in assay [2] was less than 0.01 µM each time.

For `COc1ccc2c(O[C@@H]3C[C@H]4C(=O)N[C@]5(C(=O)NS(=O)(=O)C6CC6)C[C@H]5/C=C\CCCCC[C@H](NC(=O)N5CCC(O)CC5)C(=O)N4C3)cc(-c3nc(C(C)C)cs3)nc2c1C` [Example 22, (2R,6S,13aS,14aR,16aS)-N-(cyclopropylsulfonyl)-6-{[(4-hydroxy-1-piperidinyl)carbonyl]amino}-2-{[8-methyl-2-[4-(1-methylethyl)-1,3-thiazol-2-yl]-7-(methyloxy)-4-quinolinyl]oxy}-5,16-dioxo-1,2,3,6,7,8,9,10,11,13a,14,15,16 ,16a-tetradecahydrocyclopropa[e]pyrrolo[1,2-a][1,4]diazacyclopentadecine-14a(5H)-carboxamide], the IC50 in assay [1] and in assay [2] was less than 0.01 µM each time.

In the case of `COc1ccc2c(O[C@@H]3C[C@H]4C(=O)N[C@]5(C(=O)NS(=O)(=O)C6CC6)C[C@H]5/C=C\CCCCC[C@H](NC(=O)N5CCC(c6ccccc6)CC5)C(=O)N4C3)cc(-c3nc(C(C)C)cs3)nc2c1C` [Example 20, (2R,6S,13aS,14aR,16aS)-N-(cyclopropylsulfonyl)-2-{[8-methyl-2-[4-(1-methylethyl)-1,3-thiazol-2-yl]-7-(methyloxy)-4-quinolinyl]oxy}-5,16-dioxo-6-{[(4-phenyl-1-piperidinyl)carbonyl]amino}-1,2,3,6,7,8,9,10,11,13a,14,15,16,16a-tetradecahydrocyclopropa[e]pyrrolo[1,2-a][1,4]diazacyclopentadecine-14a(5H)-carboxamide], the IC50 in assay [1] and in assay [2] was less than 0.01 µM throughout.

On to `COc1ccc2c(O[C@@H]3C[C@H]4C(=O)N[C@]5(C(=O)NS(=O)(=O)C6CC6)C[C@H]5/C=C\CCCCC[C@H](NC(=O)N5CCC(N6CCCC6)CC5)C(=O)N4C3)cc(-c3nc(C(C)C)cs3)nc2c1C` [Example 21, (2R,6S,13aS,14aR,16aS)-N-(cyclopropylsulfonyl)-2-{[8-methyl-2-[4-(1-methylethyl)-1,3-thiazol-2-yl]-7-(methyloxy)-4-quinolinyl]oxy}-5,16-dioxo-6-({[4-(1-pyrrolidinyl)-1-piperidinyl]carbonyl}amino)-1,2,3,6,7,8,9,10,11,13a,14,15,16,16a-tetradecahydrocyclopropa[e]pyrrolo[1,2-a][1,4]diazacyclopentadecine-14a(5H)-carboxamide], for which the IC50 in assay [1] and in assay [2] was less than 0.01 µM in each case.

`COc1ccc2c(O[C@@H]3C[C@H]4C(=O)N[C@]5(C(=O)NS(=O)(=O)C6CC6)C[C@H]5/C=C\CCCCC[C@H](NC(=O)N5CCOCC5)C(=O)N4C3)cc(-c3nc(C(C)C)cs3)nc2c1C` [Example 14]: the IC50 in assay [1] and in assay [2] was less than 0.01 µM each time.
